Test system: 885512-296-R-J2-PDC complex spheroid growth, % test/control
Experiment: Anticancer human tumor 885512-296-R-J2-PDC patient-derived breast carcinoma cell line growth inhibition [AhR]
Details: for IC50: curve of first compound; for viability, T/C: stronger effect = lower value
Summary of the method: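 Spheroids combined tumor cells with HUVEC endothelial cells and human MSCs as stroma. AhR antagonists were paired with standard or investigational drugs, each dosed in half-log steps down from near clinical Cmax, or from 10 microM where Cmax was unknown.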

[1] = second compound 0.1 µM, first compound 0.000949 µM
[2] = second compound 0.1 µM, first compound 0.003 µM
[3] = second compound 0.1 µM, first compound 0.00949 µM
[4] = second compound 0.1 µM, first compound 0.03 µM
[5] = second compound 0.1 µM, first compound 0.0949 µM
[6] = second compound 0.1 µM, first compound 0.3 µM
[7] = second compound 0.316 µM, first compound 0.000949 µM
[8] = second compound 0.316 µM, first compound 0.003 µM
[9] = second compound 0.316 µM, first compound 0.00949 µM
[10] = second compound 0.316 µM, first compound 0.03 µM
[11] = second compound 0.316 µM, first compound 0.0949 µM
[12] = second compound 0.316 µM, first compound 0.3 µM
[13] = second compound 1 µM, first compound 0.000949 µM
[14] = second compound 1 µM, first compound 0.003 µM
[15] = second compound 1 µM, first compound 0.00949 µM
[16] = second compound 1 µM, first compound 0.03 µM
[17] = second compound 1 µM, first compound 0.0949 µM
[18] = second compound 1 µM, first compound 0.3 µM
[19] = second compound 3.16 µM, first compound 0.000949 µM
[20] = second compound 3.16 µM, first compound 0.003 µM
[21] = second compound 3.16 µM, first compound 0.00949 µM
[22] = second compound 3.16 µM, first compound 0.03 µM
[23] = second compound 3.16 µM, first compound 0.0949 µM
[24] = second compound 3.16 µM, first compound 0.3 µM
[25] = second compound 10 µM, first compound 0.000949 µM
[26] = second compound 10 µM, first compound 0.003 µM
[27] = second compound 10 µM, first compound 0.00949 µM
[28] = second compound 10 µM, first compound 0.03 µM
[29] = second compound 10 µM, first compound 0.0949 µM
[30] = second compound 10 µM, first compound 0.3 µM
[31] = second compound 0.1 µM, first compound 0.0316 µM
[32] = second compound 0.1 µM, first compound 0.1 µM
[33] = second compound 0.1 µM, first compound 0.316 µM
[34] = second compound 0.1 µM, first compound 1 µM
[35] = second compound 0.1 µM, first compound 3.16 µM
[36] = second compound 0.1 µM, first compound 10 µM
[37] = second compound 0.316 µM, first compound 0.0316 µM
[38] = second compound 0.316 µM, first compound 0.1 µM
[39] = second compound 0.316 µM, first compound 0.316 µM
[40] = second compound 0.316 µM, first compound 1 µM
[41] = second compound 0.316 µM, first compound 3.16 µM
[42] = second compound 0.316 µM, first compound 10 µM
[43] = second compound 1 µM, first compound 0.0316 µM
[44] = second compound 1 µM, first compound 0.1 µM
[45] = second compound 1 µM, first compound 0.316 µM
[46] = second compound 1 µM, first compound 1 µM
[47] = second compound 1 µM, first compound 3.16 µM
[48] = second compound 1 µM, first compound 10 µM
[49] = second compound 3.16 µM, first compound 0.0316 µM
[50] = second compound 3.16 µM, first compound 0.1 µM
[51] = second compound 3.16 µM, first compound 0.316 µM
[52] = second compound 3.16 µM, first compound 1 µM
[53] = second compound 3.16 µM, first compound 3.16 µM
[54] = second compound 3.16 µM, first compound 10 µM
[55] = second compound 10 µM, first compound 0.0316 µM
[56] = second compound 10 µM, first compound 0.1 µM
[57] = second compound 10 µM, first compound 0.316 µM
[58] = second compound 10 µM, first compound 1 µM
[59] = second compound 10 µM, first compound 3.16 µM
[60] = second compound 10 µM, first compound 10 µM
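Further: spheroids exposed to compounds for seven days.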

Question: What does the source list for `CC(C)CC(NC(=O)C(Cc1ccccc1)NC(=O)c1cnccn1)B(O)O` (stereo not given) + CC(CO)NC(=O)c1cc(-c2ccc(Cl)cc2)nn(-c2cnn(C)c2)c1=O?
Answer: IC50 (second compound 0.1 µM): 5.22 nM; IC50 (second compound 0.316 µM): 5.67 nM; IC50 (second compound 1 µM): 5.45 nM; IC50 (second compound 3.16 µM): 5.42 nM; IC50 (second compound 10 µM): 5.75 nM; viability, T/C [1]: 97%; viability, T/C [2]: 86.5%; viability, T/C [3]: 10.7%; viability, T/C [4]: 0.69%; viability, T/C [5]: 0.12%; viability, T/C [6]: 0.12%; viability, T/C [7]: 96.1%; viability, T/C [8]: 99.3%; viability, T/C [9]: 11.2%; viability, T/C [10]: 0.78%; viability, T/C [11]: 0.16%; viability, T/C [12]: 0.08%; viability, T/C [13]: 98.4%; viability, T/C [14]: 94%; viability, T/C [15]: 9.2%; viability, T/C [16]: 0.72%; viability, T/C [17]: 0.26%; viability, T/C [18]: 0.12%; viability, T/C [19]: 89.4%; viability, T/C [20]: 91.6%; viability, T/C [21]: 11.7%; viability, T/C [22]: 0.76%; viability, T/C [23]: 0.16%; viability, T/C [24]: 0.1%; viability, T/C [25]: 91.6%; viability, T/C [26]: 113%; viability, T/C [27]: 9.64%; viability, T/C [28]: 0.68%; viability, T/C [29]: 0.18%; viability, T/C [30]: 0.14%

Question: `CCc1c2c(nc3ccc(O)cc13)-c1cc3c(c(=O)n1C2)COC(=O)[C@]3(O)CC` + CC(CO)NC(=O)c1cc(-c2ccc(Cl)cc2)nn(-c2cnn(C)c2)c1=O was tested. Which IC50 (second compound 0.1 µM) did it give?
Answer: < 0.949 nM

Question: What about the IC50 (second compound 0.316 µM) of the same compound?
Answer: < 0.949 nM

Question: And the IC50 (second compound 1 µM)?
Answer: < 0.949 nM

Question: What about the IC50 (second compound 3.16 µM) of the same compound?
Answer: < 0.949 nM

Question: What about the IC50 (second compound 10 µM) of the same compound?
Answer: < 0.949 nM

Question: What about the viability, T/C [1] of the same compound?
Answer: 9.08%

Question: And the viability, T/C [2]?
Answer: 7.28%

Question: And the viability, T/C [3]?
Answer: 5.78%

Question: And the viability, T/C [4]?
Answer: 3.29%

Question: What about the viability, T/C [5] of the same compound?
Answer: 2.16%

Question: And the viability, T/C [6]?
Answer: 1.46%

Question: What about the viability, T/C [7] of the same compound?
Answer: 8.34%

Question: And the viability, T/C [8]?
Answer: 6.02%

Question: And the viability, T/C [9]?
Answer: 3.71%

Question: What about the viability, T/C [10] of the same compound?
Answer: 3.2%

Question: What about the viability, T/C [11] of the same compound?
Answer: 1.99%

Question: What about the viability, T/C [12] of the same compound?
Answer: 1.09%

Question: What about the viability, T/C [13] of the same compound?
Answer: 10.7%

Question: And the viability, T/C [14]?
Answer: 7.68%

Question: What about the viability, T/C [15] of the same compound?
Answer: 4.79%

Question: And the viability, T/C [16]?
Answer: 3.71%

Question: What about the viability, T/C [17] of the same compound?
Answer: 2.42%

Question: What about the viability, T/C [18] of the same compound?
Answer: 1.92%

Question: What about the viability, T/C [19] of the same compound?
Answer: 10.8%

Question: What about the viability, T/C [20] of the same compound?
Answer: 9.5%

Question: What about the viability, T/C [21] of the same compound?
Answer: 4.77%

Question: And the viability, T/C [22]?
Answer: 4.01%

Question: What about the viability, T/C [23] of the same compound?
Answer: 2.56%

Question: And the viability, T/C [24]?
Answer: 2.05%

Question: And the viability, T/C [25]?
Answer: 13.8%

Question: What about the viability, T/C [26] of the same compound?
Answer: 12.5%

Question: And the viability, T/C [27]?
Answer: 6.57%

Question: What about the viability, T/C [28] of the same compound?
Answer: 4.99%

Question: And the viability, T/C [29]?
Answer: 2.67%

Question: What about the viability, T/C [30] of the same compound?
Answer: 2.21%

Question: What does the source list for `Nc1ccccc1NC(=O)c1ccc(CNC(=O)OCc2cccnc2)cc1` + CC(CO)NC(=O)c1cc(-c2ccc(Cl)cc2)nn(-c2cnn(C)c2)c1=O?
Answer: IC50 (second compound 0.1 µM): 696 nM; IC50 (second compound 0.316 µM): 620 nM; IC50 (second compound 1 µM): 704 nM; IC50 (second compound 3.16 µM): 590 nM; IC50 (second compound 10 µM): 452 nM; viability, T/C [31]: 91.9%; viability, T/C [32]: 76.4%; viability, T/C [33]: 61.9%; viability, T/C [34]: 42%; viability, T/C [35]: 31.8%; viability, T/C [36]: 13%; viability, T/C [37]: 85.1%; viability, T/C [38]: 70.3%; viability, T/C [39]: 62.2%; viability, T/C [40]: 43.4%; viability, T/C [41]: 24.6%; viability, T/C [42]: 11.6%; viability, T/C [43]: 92.8%; viability, T/C [44]: 80.2%; viability, T/C [45]: 58.8%; viability, T/C [46]: 44%; viability, T/C [47]: 32.6%; viability, T/C [48]: 11.6%; viability, T/C [49]: 85.4%; viability, T/C [50]: 78.6%; viability, T/C [51]: 59%; viability, T/C [52]: 36.8%; viability, T/C [53]: 31.4%; viability, T/C [54]: 9.96%; viability, T/C [55]: 82.6%; viability, T/C [56]: 74.2%; viability, T/C [57]: 55.5%; viability, T/C [58]: 34%; viability, T/C [59]: 24.1%; viability, T/C [60]: 6.25%

Question: How did the IC50 (second compound 0.1 µM) turn out when `O=C(c1cc(Cc2n[nH]c(=O)c3ccccc23)ccc1F)N1CCN(C(=O)C2CC2)CC1` + CC(CO)NC(=O)c1cc(-c2ccc(Cl)cc2)nn(-c2cnn(C)c2)c1=O was run?
Answer: 6930 nM

Question: What about the IC50 (second compound 0.316 µM) of the same compound?
Answer: 6970 nM

Question: And the IC50 (second compound 1 µM)?
Answer: 7140 nM

Question: What about the IC50 (second compound 3.16 µM) of the same compound?
Answer: 7140 nM

Question: And the IC50 (second compound 10 µM)?
Answer: 4620 nM

Question: And the viability, T/C [31]?
Answer: 98.1%

Question: And the viability, T/C [32]?
Answer: 106%

Question: What about the viability, T/C [33] of the same compound?
Answer: 110%

Question: And the viability, T/C [34]?
Answer: 137%

Question: And the viability, T/C [35]?
Answer: 98.1%

Question: And the viability, T/C [36]?
Answer: 27.5%

Question: What about the viability, T/C [37] of the same compound?
Answer: 102%

Question: What about the viability, T/C [38] of the same compound?
Answer: 89.7%

Question: And the viability, T/C [39]?
Answer: 112%

Question: What about the viability, T/C [40] of the same compound?
Answer: 121%

Question: And the viability, T/C [41]?
Answer: 95.5%

Question: What about the viability, T/C [42] of the same compound?
Answer: 29.2%

Question: And the viability, T/C [43]?
Answer: 96.4%

Question: And the viability, T/C [44]?
Answer: 102%

Question: And the viability, T/C [45]?
Answer: 105%

Question: And the viability, T/C [46]?
Answer: 118%

Question: What about the viability, T/C [47] of the same compound?
Answer: 104%

Question: And the viability, T/C [48]?
Answer: 27.8%

Question: And the viability, T/C [49]?
Answer: 94.7%

Question: And the viability, T/C [50]?
Answer: 98.4%

Question: And the viability, T/C [51]?
Answer: 111%

Question: What about the viability, T/C [52] of the same compound?
Answer: 113%

Question: What about the viability, T/C [53] of the same compound?
Answer: 91.9%

Question: What about the viability, T/C [54] of the same compound?
Answer: 32.5%

Question: And the viability, T/C [55]?
Answer: 98.1%

Question: And the viability, T/C [56]?
Answer: 96%

Question: What about the viability, T/C [57] of the same compound?
Answer: 109%

Question: What about the viability, T/C [58] of the same compound?
Answer: 93.6%

Question: And the viability, T/C [59]?
Answer: 62.1%

Question: And the viability, T/C [60]?
Answer: 25.8%

From PubChem BioAssay AID1919006 (Molecular Pharmacology Branch, DTP, NCI, 2023)
